Our source for the activation and EC50 values is patent publication US20220235006A1, “PYRIDINE DERIVATIVES AS TMEM16A MODULATORS FOR USE IN THE TREATMENT OF RESPIRATORY CONDITIONS” (TMEM16A LIMITED, priority 2019, published 2022).

The target in this assay is T1, human TMEM16A (TMEM16Aabc variant) (Homo sapiens, UniProt Q5XXA6, DEL476-501).
T1 sequence (Q5XXA6 with tags, fused parts or gaps isoform Q5XXA6-5 DEL539-564): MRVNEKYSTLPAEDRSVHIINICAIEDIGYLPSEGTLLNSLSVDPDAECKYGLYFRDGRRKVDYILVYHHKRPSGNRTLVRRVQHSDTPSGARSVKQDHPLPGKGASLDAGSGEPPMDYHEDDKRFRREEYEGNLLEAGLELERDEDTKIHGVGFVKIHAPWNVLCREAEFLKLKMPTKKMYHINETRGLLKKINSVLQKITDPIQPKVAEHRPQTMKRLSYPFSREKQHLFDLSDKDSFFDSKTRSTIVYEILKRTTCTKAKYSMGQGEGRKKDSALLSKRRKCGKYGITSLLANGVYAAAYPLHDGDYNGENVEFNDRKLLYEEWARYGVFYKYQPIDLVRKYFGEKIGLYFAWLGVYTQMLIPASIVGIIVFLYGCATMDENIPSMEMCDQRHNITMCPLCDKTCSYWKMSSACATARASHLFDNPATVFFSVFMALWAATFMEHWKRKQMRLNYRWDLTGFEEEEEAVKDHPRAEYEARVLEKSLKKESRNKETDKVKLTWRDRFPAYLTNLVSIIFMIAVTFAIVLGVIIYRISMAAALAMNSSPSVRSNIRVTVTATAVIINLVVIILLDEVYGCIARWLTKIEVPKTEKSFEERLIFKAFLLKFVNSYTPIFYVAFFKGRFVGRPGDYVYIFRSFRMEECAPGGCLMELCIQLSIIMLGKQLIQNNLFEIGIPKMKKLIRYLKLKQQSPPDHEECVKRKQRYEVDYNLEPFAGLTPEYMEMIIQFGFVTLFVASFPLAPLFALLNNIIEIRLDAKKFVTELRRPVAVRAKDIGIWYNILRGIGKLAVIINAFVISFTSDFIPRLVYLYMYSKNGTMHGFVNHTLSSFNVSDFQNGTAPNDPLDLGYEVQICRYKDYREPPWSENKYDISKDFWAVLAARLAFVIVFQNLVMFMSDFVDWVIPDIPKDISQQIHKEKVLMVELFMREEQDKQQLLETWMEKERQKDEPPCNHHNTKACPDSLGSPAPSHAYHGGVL
The experiment in a line: Automated whole-cell patch clamp (Qpatch) TMEM16A potentiator assay in recombinant FRT cells. Format: cell-based. Particulars: for activation at 3.33 µM: percentage increase of baseline TMEM16A current, minimum n = 2, read-out: % Potentiation @ 3.33 uM Avg; for EC50: minimum n = 2. A digest of the protocol: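 FRT cells stably expressing human TMEM16Aabc, whole-cell automated patch clamp with intracellular Ca2+ buffered for ~20% maximal current (EC20). Held at −70 mV, step to +70 mV/ramp at 0.05 Hz, cumulative compound additions of 5 min each. Peak +70 mV current increase expressed as % potentiation of baseline.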

Turning to `CC(C)(CO)c1cc(F)c(CC(=O)Nc2ccnc(C(=O)NC3(C(F)(F)F)CC3)c2)cc1O` [Example 2.6, 4-[[2-[2-Fluoro-5-hydroxy-4-(2-hydroxy-1,1-dimethyl-ethyl)phenyl]acetyl]amino]-N-[1-(trifluoromethyl)cyclopropyl]pyridine-2-carboxamide], the activation at 3.33 µM stood at 270% and the EC50 (commonly the concentration giving half of the maximal effect) was 30 nM.

For `CC(C)(CCO)c1cc(F)c(CC(=O)Nc2ccnc(C(=O)NC3(C(F)(F)F)CC3)c2)cc1O` [Example 11, 4-[[2-[2-Fluoro-5-hydroxy-4-(3-hydroxy-1,1-dimethyl-propyl)phenyl]acetyl]amino]-N-[1-(trifluoromethyl)cyclopropyl]pyridine-2-carboxamide], the activation at 3.33 µM was 208% and the EC50 was found to be 43 nM.

On to `CC(C)(CO)c1cc(Cl)c(CC(=O)Nc2ccnc(C(=O)NC3(C(F)F)CC3)c2)cc1O` [Example 15.3, 4-[[2-[2-Chloro-5-hydroxy-4-(2-hydroxy-1,1-dimethyl-ethyl)phenyl]acetyl]amino]-N-[1-(difluoromethyl)cyclopropyl]pyridine-2-carboxamide], for which the activation at 3.33 µM came to 250% and the EC50 was 36 nM.

For the molecule `O=C(Cc1cc(O)c(C(CO)C(F)(F)F)cc1F)Nc1ccnc(C(=O)NC2(C(F)(F)F)CC2)c1` (centres unmarked) [Example 17, 4-[[2-[2-Fluoro-5-hydroxy-4-[2,2,2-trifluoro-1-(hydroxymethyl)ethyl]phenyl]acetyl]amino]N-[1-(trifluoromethyl)cyclopropyl]pyridine-2-carboxamide], the activation at 3.33 µM is 374% and the EC50 was determined as 93 nM.

`Cc1cc(C(C)(C)CO)c(O)cc1CC(=O)Nc1ccnc(C(=O)NC2(C(F)(F)F)CC2)c1` [Example 14.1, 4-[[2-[5-Hydroxy-4-(2-hydroxy-1,1-dimethyl-ethyl)-2-methyl-phenyl]acetyl]amino]-N-[1-(trifluoromethyl)cyclopropyl]pyridine-2-carboxamide]: the activation at 3.33 µM is 233% and the EC50 came out at 45 nM.

With `CC(C)(C#N)NC(=O)c1cc(NC(=O)Cc2ccc(C(C)(C)C)c(O)c2)ccn1` [93.4 of PCT/GB2019/050209, reference compound], the activation at 3.33 µM came to 476% and the EC50 came to 64 nM.

In the case of `CC(C#N)NC(=O)c1cc(NC(=O)Cc2cc(O)c(C(C)(C)C)cc2F)ccn1` (centres unmarked) [Example 1.3], the activation at 3.33 µM was 380% and the half-maximal effective concentration (EC50) came out at 104 nM.

Consider `CC(C)(O)c1cc(F)c(CC(=O)Nc2ccnc(C(=O)NC3(C(F)(F)F)CC3)c2)cc1O` [Example 2, 4-[[2-[2-Fluoro-5-hydroxy-4-(1-hydroxy-1-methyl-ethyl)phenyl]acetyl]amino]-N-[1-(trifluoromethyl)cyclopropyl]pyridine-2-carboxamide], for which the activation at 3.33 µM was 243% and the EC50 is 64 nM.

For `CC(C)(CO)c1cc(Cl)c(CC(=O)Nc2ccnc(C(=O)NC3(C(F)(F)F)CC3)c2)cc1O` [Example 14, 4-[[2-[2-Chloro-5-hydroxy-4-(2-hydroxy-1,1-dimethyl-ethyl)phenyl]acetyl]amino]-N-[1-(trifluoromethyl)cyclopropyl]pyridine-2-carboxamide], the activation at 3.33 µM was determined as 490% and the EC50 is 33 nM.

With `CCC(C)(O)c1cc(F)c(CC(=O)Nc2ccnc(C(=O)NC3(C(F)(F)F)CC3)c2)cc1O` (centres unmarked) [Example 2.11, 4-[[2-[2-Fluoro-5-hydroxy-4-(1-hydroxy-1-methyl-propyl)phenyl]acetyl]amino]-N-[1-(trifluoromethyl)cyclopropyl]pyridine-2-carboxamide], the activation at 3.33 µM turned out to be 390% and the EC50 worked out at 64 nM.

Regarding `CC(C)(C)NC(=O)c1cc(NC(=O)Cc2cc(O)c(C(C)(C)C)cc2F)ccn1` [91 of PCT/GB2019/050209, reference compound], the EC50 worked out at 55 nM.

`O=C(Cc1cc(O)c(C2(CO)CCC2)cc1F)Nc1ccnc(C(=O)NC2(C(F)(F)F)CC2)c1` [Example 2.13, 4-[[2-[2-Fluoro-5-hydroxy-4-[1-(hydroxymethyl)cyclobutyl]phenyl]acetyl]amino]-N-[1-(trifluoromethyl)cyclopropyl]pyridine-2-carboxamide]: the activation at 3.33 µM was 339% and the EC50 was 37 nM.
